Data: patent US20130065792A1, “INDUCIBLE EXPRESSION OF SGLT5, METHODS AND KITS USING THE SAME” (BOEHRINGER INGELHEIM INTERNATIONAL GMBH, priority 2011, published 2013)
Where two headings read alike, the source gives them in different places.

Key:
SGLT5 [1] = biological target: T1, SGLT5 (Homo sapiens, UniProt A0PJK1); assay: Km-determination for mannose, fructose and AMG uptake by T-Rex 293-hSGLT5 cells; format: cell-based; conditions: for Km: specific (sodium dependent) uptake of [14C]-sugar, 4 h, T-Rex 293-hSGLT5 cells, three assays in parallel, read-out: Affinity for SGLT5 (Km)
T1 construct: expressed in transfected cells; host or cells: T-Rex 293 cells (Invitrogen), stably transfected with pT-Rex-Dest30-hSGLT5; expression induced with tetracycline; deposited clone DSM ACC3096
T1 sequence (A0PJK1 1-596): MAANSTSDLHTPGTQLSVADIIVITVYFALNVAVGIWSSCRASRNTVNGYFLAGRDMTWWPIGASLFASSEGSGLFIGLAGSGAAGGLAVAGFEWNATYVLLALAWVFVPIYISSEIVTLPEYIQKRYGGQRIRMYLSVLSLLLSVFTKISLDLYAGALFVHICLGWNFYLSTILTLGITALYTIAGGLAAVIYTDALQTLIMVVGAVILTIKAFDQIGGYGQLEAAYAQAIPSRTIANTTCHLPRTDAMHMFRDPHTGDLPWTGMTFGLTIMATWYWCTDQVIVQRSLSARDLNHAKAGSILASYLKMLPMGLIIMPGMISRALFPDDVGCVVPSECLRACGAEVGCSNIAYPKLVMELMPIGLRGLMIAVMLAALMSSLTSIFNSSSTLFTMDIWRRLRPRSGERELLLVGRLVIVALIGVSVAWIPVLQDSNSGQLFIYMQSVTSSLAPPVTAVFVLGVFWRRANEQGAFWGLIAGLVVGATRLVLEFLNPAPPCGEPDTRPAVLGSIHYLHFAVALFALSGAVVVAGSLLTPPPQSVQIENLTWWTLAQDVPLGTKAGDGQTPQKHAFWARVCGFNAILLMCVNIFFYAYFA
Protocol: (§1) [^14C]-monosaccharide uptake inhibition experiments: Stable cell lines overexpressing human SGLT-5 were used for the sodium-dependent monosaccharide transport inhibition assay. Cells were pre-incubated in 200 μl uptake buffer (10 mM HEPES, 137 mM NaCl, 5.4 mM KCl, 2.8 mM CaCl2, 1.2 mM MgCl2, 50 μg/ml Gentamycin, 0.1% BSA) for 25 minutes at 37° C. 10 μM Cytochalasin B and test compound was added at different concentrations 15 minutes before the initiation of the uptake experiment.
(§2) The uptake reaction was started by the addition of 0.6 μCi [^14C]-labelled monosaccharide i.e. [^14C]-labeled alpha-methyl glucopyranoside (AMG), glucose, fructose, mannose or myo-inositol, in 0.1 mM AMG (or the respective non-radioactive monosaccharide).
(§3) After incubation for 60 minutes at 37° C., the cells were washed three times with 300 μl PBS (Cambrex, Verviers, Belgium) and then lysed in 0.1 N NaOH with intermittent shaking for 5 minutes. The lysate was mixed with 200 μl MicroScint 40 and shaken for 15 minutes and counted for radioactivity in the TopCount NXT (Canberra Packard, Schwadorf, Austria). The cells were pre-incubated in pre-treatment buffer (uptake buffer containing choline chloride instead of sodium chloride) for 25 minutes prior to addition of uptake buffer.
Km-determination for mannose, fructose and Alpha-Methylglucose (AMG) uptake by SGLT5: The uptake of Mannose, Fructose and AMG was assayed as described under “[^14C]-monosaccharide uptake inhibition experiments” in the absence (nonspecific uptake) or presence of sodium (Total uptake) in the buffer at different concentrations of the respective monosaccharide for 4 h. From the difference of Total uptake and Nonspecific uptake the Specific uptake was calculated and the Km was determined using the Program Graph Pad Prism (LaJolla, Calif., USA).
(§4) The measured affinity curves measured in three assays run in parallel are shown in FIG. 4A (for mannose), 4B (for fructose) and 4C (for AMG).

SGLT5 [2] = biological target: T1, SGLT5; assay: Time dependent specific uptake of [14C]-monosaccharides by T-Rex 293-hSGLT5 cells (FIG. 3); format: cell-based; conditions: 1 mM monosaccharide, 5-60 min, tetracycline induced T-Rex 293-hSGLT5 cells
Protocol: [^14C]-saccharide uptake experiments: 30000 cells per well were seeded in white poly-D-lysine-coated 96-well plates and incubated over night. The expression of hSGLT5 was induced 24 h before the start of uptake experiments by the addition of 1 μg/ml tetracycline to the cells. For the assay, cells were washed twice with 250 μl pre-treatment buffer [140 mM cholinchloride in basal buffer (10 mM HEPES; 5.4 mM KCl; 2.8 mM CaCl2*2 H2O; 1.2 mM MgSO4*7 H2O; 0.1% BSA, pH 7.4) and incubated in 200 μl pre-treatment buffer for 25 min at 37° C. Pre-treatment buffer was removed and 200 μl uptake buffer was added to the cells (140 mM NaCl in basal buffer containing 1 mM cold monosaccharide [either glucose, fructose, mannose, galactose or alphamethyl glucopyranoside (AMG), respectively]+0,6 μCi [^14C]-labelled monosaccharide [either glucose, fructose, mannose, galactose or alpha-methyl glucopyranoside (AMG), respectively] (Hartmann Analytics, Mannheim, Germany) and 10 μM Cytochalasin B. After incubation for 5, 10, 30 and 60 minutes at 37° C., the cells were washed three times with 300 μl PBS (Cambrex, Verviers, Belgium) and then lysed in 0.1 N NaOH with intermittent shaking for 5 min. The lysate was mixed with 200 μl MikroScint 40 Scintillator, shaken for 15 min and counted for radioactivity in the TopCount NXT (Canberra Packard, Schwadorf, Austria). Specific sugar uptake was determined by subtracting non-specific uptake of each sugar (in the presence of choline chloride) from total uptake of the same sugar (in the presence of sodium chloride).
Furthermore, a protocol was established to measure the specific uptake of monosaccharides e.g. mannose, fructose, glucose, AMG and galactose by hSGLT5, It could be shown that the transporter takes up mannose and fructose with high affinity and hardly transports glucose, AMG and galactose (FIG. 3). […] Specific uptake was calculated by subtracting the respective monosaccharide uptake in the presence of choline chloride from the total uptake of the same monosaccharide in the presence of sodium chloride.

SGLT5 [3] = biological target: T1, SGLT5; assay: [14C]-monosaccharide uptake inhibition assay, [14C]-mannose as substrate, stable cell lines overexpressing human SGLT-5; format: cell-based; conditions: for IC50 / pIC50 ± SEM for inhibition of hSGLT-5: [14C]-mannose as substrate
Protocol: [^14C]-monosaccharide uptake inhibition experiments: Stable cell lines overexpressing human SGLT-5 were used for the sodium-dependent monosaccharide transport inhibition assay. […] The uptake reaction was started by the addition of 0.6 μCi [^14C]-labelled monosaccharide i.e. [^14C]-labeled alpha-methyl glucopyranoside (AMG), glucose, fructose, mannose or myo-inositol, in 0.1 mM AMG (or the respective non-radioactive monosaccharide). After incubation for 60 minutes at 37° C., the cells were washed three times with 300 μl PBS (Cambrex, Verviers, Belgium) and then lysed in 0.1 N NaOH with intermittent shaking for 5 minutes. The lysate was mixed with 200 μl MicroScint 40 and shaken for 15 minutes and counted for radioactivity in the TopCount NXT (Canberra Packard, Schwadorf, Austria). The cells were pre-incubated in pre-treatment buffer (uptake buffer containing choline chloride instead of sodium chloride) for 25 minutes prior to addition of uptake buffer. A dose-response curve was fitted to an empirical four-parameter model using XL Fit (IDBS, Guildford, UK) to determine the inhibitor concentration at half-maximal response (IC50). Human SGLT-5 was identified to be a mannose transporter and the inhibition of hSGLT-5 was assessed by a newly established [^14C]-mannose uptake assay.

[4] = substrate: O=C(CO)[C@@H](O)[C@H](O)[C@H](O)CO; assay: Km-determination for mannose, fructose and AMG uptake by T-Rex 293-hSGLT5 cells; format: cell-based, human; conditions: other: specific (sodium dependent) uptake of [14C]-sugar, 4 h, three assays in parallel, 37.0 °C
Protocol: as §1, §2
as §3, with “The cells were pre-incubated in pre-treatment buffer (uptake buffer containing choline chloride instead of sodium chloride) for 25 minutes prior to addition of uptake buffer.” left out
as §4

[5] = 60 minutes at 37° C., at least three independent experiments, read-out: Mean IC50 for inhibition of hSGLT-5

## COC1OC(CO)C(O)C(O)C1O (stereo not drawn) [AMG, alpha-methyl glucopyranoside]
SGLT5 [1]; ratio of Km values
  Km fold higher than the Km for fructose: at least 5 fold
  Km fold higher than the Km for mannose: at least 33 fold
SGLT5 [1]
  Km: 10.1 mM
SGLT5 [2]
  specific uptake / affinity for hSGLT5 (in words): very low affinity

## OC[C@H]1O[C@@H](c2ccc(F)c(Cc3cc4ccccc4s3)c2)[C@H](O)[C@@H](O)[C@@H]1O [ASP-1941]
SGLT5 [3]; [5]
  IC50: 740 nM

## Cc1ccc([C@@H]2O[C@H](CO)[C@@H](O)[C@H](O)[C@H]2O)cc1Cc1ccc(-c2ccc(F)cc2)s1 [Canagliflozin]
SGLT5 [3]; [5]
  IC50: 1700 nM
SGLT5 [3]; given with negative sign
  pIC50 ± SEM for inhibition of hSGLT-5: 5.77 ± 0.12

## OC[C@H]1O[C@@H](c2ccc(Cl)c(Cc3ccc(O[C@H]4CCOC4)cc3)c2)[C@H](O)[C@@H](O)[C@@H]1O [Compound A, D-glucitol, 1,5-anhydro-1-C-[4-chloro-3-[[4-[[(3S)-tetrahydro-3-furanyl]oxy]phenyl]methyl]phenyl]-, (1S)-]
SGLT5 [3]; [5]
  IC50: 1100 nM
SGLT5 [3]; given with negative sign, read-out: pIC50 ± SEM for inhibition of hSGLT-5 (converted)
  IC50: 1050 nM

## Cc1cc(O)c(C(=O)CCc2ccc3occc3c2)c(O[C@@H]2O[C@H](CO)[C@@H](O)[C@H](O)[C@H]2O)c1 [Compound T1095A]
SGLT5 [3]; [5]
  IC50: 1100 nM
SGLT5 [3]; given with negative sign
  pIC50 ± SEM for inhibition of hSGLT-5: 5.97 ± 0.19

## CCOc1ccc(Cc2cc([C@@H]3O[C@H](CO)[C@@H](O)[C@H](O)[C@H]3O)ccc2Cl)cc1 [Dapagliflozin]
SGLT5 [3]; [5]
  IC50: 820 nM

## O=C(CO)[C@@H](O)[C@H](O)[C@H](O)CO [Fructose]
SGLT5 [1]; ratio of Km values
  Km fold higher than the Km for mannose: 6.67 fold
SGLT5 [1]
  Km: ≤ 2 mM
SGLT5 [2]
  specific uptake / affinity for hSGLT5 (in words): high affinity

## O=C(CCc1ccc(O)cc1)c1c(O)cc(O)cc1O[C@@H]1O[C@H](CO)[C@@H](O)[C@H](O)[C@H]1O [Phlorizin]
SGLT5 [3]; [5]
  IC50: 1500 nM

## Cc1c(Cc2ccc(OC(C)C)cc2)c(O[C@@H]2O[C@H](CO)[C@@H](O)[C@H](O)[C@H]2O)nn1C(C)C [Remogliflozin]
SGLT5 [3]; SGLT-5 versus SGLT-2
  selectivity over SGLT-2: < 15 fold
SGLT5 [3]; [5]
  IC50: 190 nM

## COc1ccc(Cc2ccccc2O[C@@H]2O[C@H](CO)[C@@H](O)[C@H](O)[C@H]2O)cc1 [Sergliflozin]
SGLT5 [3]; [5]
  IC50: 1100 nM
SGLT5 [3]; given with negative sign
  pIC50 ± SEM for inhibition of hSGLT-5: 5.95

B1: SGLT5 (Homo sapiens) (protein)
chain: MAANSTSDLHTPGTQLSVADIIVITVYFALNVAVGIWSSCRASRNTVNGYFLAGRDMTWWPIGASLFASSEGSGLFIGLAGSGAAGGLAVAGFEWNATYVLLALAWVFVPIYISSEIVTLPEYIQKRYGGQRIRMYLSVLSLLLSVFTKISLDLYAGALFVHICLGWNFYLSTILTLGITALYTIAGGLAAVIYTDALQTLIMVVGAVILTIKAFDQIGGYGQLEAAYAQAIPSRTIANTTCHLPRTDAMHMFRDPHTGDLPWTGMTFGLTIMATWYWCTDQVIVQRSLSARDLNHAKAGSILASYLKMLPMGLIIMPGMISRALFPDDVGCVVPSECLRACGAEVGCSNIAYPKLVMELMPIGLRGLMIAVMLAALMSSLTSIFNSSSTLFTMDIWRRLRPRSGERELLLVGRLVIVALIGVSVAWIPVLQDSNSGQLFIYMQSVTSSLAPPVTAVFVLGVFWRRANEQGAFWGLIAGLVVGATRLVLEFLNPAPPCGEPDTRPAVLGSIHYLHFAVALFALSGAVVVAGSLLTPPPQSVQIENLTWWTLAQDVPLGTKAGDGQTPQKHAFWARVCGFNAILLMCVNIFFYAYFA
notes: expressed in transfected cells; host or cells: T-Rex 293 cells (Invitrogen), stably transfected with pT-Rex-Dest30-hSGLT5; expression induced with tetracycline; deposited clone DSM ACC3096
[4]
  Km: 2.0 mM
